Test results reported in patent publication US20170121322A1, “BET-PROTEIN INHIBITING 3,4-DIHYDROPYRIDO[2,3-B]PYRAZINONES WITH META-SUBSTITUTED AROMATIC AMINO- OR ETHER GROUPS” (Bayer Pharma Aktiengesellschaft, priority 2014, published 2017).

Legend:
[1] = target: T1, BRD4 bromo domain 2 [BRD4(2)] (Homo sapiens, UniProt O60885); test: BRD4(2)/acetylated peptide H4 TR-FRET binding assay; conditions: His6-BRD4(2) (aa 357-445) vs acetylated histone H4 peptide
T1 construct: N-terminally His6-tagged BRD4(2) (amino acids 357-445); made in house; host or cells: E. coli
Excerpt: To assess the BRD4(2) binding strength of the substances described in this application, the ability thereof to inhibit the interaction between BRD4(2) and acetylated histone H4 in a dose-dependent manner was quantified.
For this purpose, a time-resolved fluorescence resonance energy transfer (TR-FRET) assay was used, which measures the binding between N-terminally His6-tagged BRD4(2) (amino acids 357-445) and a synthetic acetylated histone H4 (Ac-H4) peptide with sequence SGRGK(Ac)GGK(Ac)GLGK(Ac)GGAK(Ac)RHRKVLRDNGSGSK-biotin. The recombinant BRD4(2) protein produced in-house according to Filippakopoulos et al., Cell, 2012, 149:214-231 was expressed in E. coli and purified by means of (Ni-NTA) affinity and (Sephadex G-75) size exclusion chromatography. The Ac-H4 peptide can be purchased, for example, from Biosyntan (Berlin, Germany).
In the assay, typically 11 different concentrations of each substance (0.1 nM, 0.33 nM, 1.1 nM, 3.8 nM, 13 nM, 44 nM, 0.15 μM, 0.51 μM, 1.7 μM, 5.9 μM and 20 μM) were analysed as duplicates on the same microtitre plate. For this purpose, 100-fold concentrated solutions in DMSO were prepared by serial dilutions (1:3.4) of a 2 mM stock solution into a clear, 384-well microtitre plate (Greiner Bio-One, Frickenhausen, Germany). From this, 50 nl were transferred into a black test plate (Greiner Bio-One, Frickenhausen, Germany). The test was started by the addition of 2 μl of a 2.5-fold concentrated BRD4(2) solution (final concentration typically 100 nM in the 5 μl of reaction volume) in aqueous assay buffer [50 mM HEPES pH 7.5, 50 mM sodium chloride (NaCl); 50 mM potassium fluoride (KF); 0.25 mM CHAPS and 0.05% serum albumin (BSA)] to the substances in the test plate. This was followed by a 10-minute incubation step at 22° C. for the pre-equilibration of putative complexes between BRD4(2) and the substances.
The mixture was then incubated in the dark at 22° C. for one hour and then at 4° C. for at least 3 hours and for no longer than overnight. The formation of BRD4(2)/Ac-H4 complexes was determined by the measurement of the resonance energy transfer from the streptavidin-Eu chelate to the anti-6His-XL665 antibody present in the reaction. For this purpose, the fluorescence emission was measured at 620 nm and 665 nm after excitation at 330-350 nm in a TR-FRET measuring instrument, for example a Rubystar or Pherastar (both from BMG Lab Technologies, Offenburg, Germany) or a Viewlux (Perkin-Elmer). The ratio of the emissions at 665 nm and at 622 nm was taken as an indicator of the amount of BRD4(2)/Ac-H4 complexes formed.
The data (ratios) obtained were normalized, with 0% inhibition corresponding to the mean from the measurements for a set of controls (typically 32 data points) in which all the reagents were present. In these, in place of test substances, 50 nl of DMSO (100%) were used. Inhibition of 100% corresponded to the mean from the measurements for a set of controls (typically 32 data points) in which all the reagents except BRD4(2) were present. The IC50 was determined by regression analysis based on a 4-parameter equation (minimum, maximum, IC50, Hill; Y=Max+(Min−Max)/(1+(X/IC50)Hill)).

MOLP-8 cells = test: Cell proliferation assay MOLP-8 (alamarBlue); format: cell-based; conditions: Homo sapiens, multiple myeloma cells, 120 hours
Protocol: (§1) In accordance with the invention, the ability of the substances to inhibit cell proliferation was determined. Cell viability was determined by means of the alamarBlue® reagent (Invitrogen) in a Victor X3 Multilabel Reader (Perkin Elmer). The excitation wavelength was 530 nm and the emission wavelength […].
The MOLP-8 cells (DSMZ, ACC 569) were seeded at a concentration of 4000 cells/well in 100 μl of growth medium (RPMI1640, 20% FCS) on 96-well microtitre plates.
(§2) After overnight incubation at 37° C., the fluorescence values (CI values) were determined. Then the plates were treated with various substance dilutions (1E-5 M, 3E-6 M, 1E-6 M, 3E-7 M, 1E-7 M, 3E-8 M, 1E-8 M) and incubated at 37° C. over 96 hours (MOLM-13, B16F10, CHL-1 cells) or 120 hours (MOLP-8 cells). Subsequently, the fluorescence values were determined (CO values). For the data analysis, the CI values were subtracted from the CO values and the results were compared between cells which had been treated with various dilutions of the substance or only with buffer solution. The IC50 values (substance concentration needed for 50% inhibition of cell proliferation) were calculated therefrom.
(§3) The substances were tested in the cell lines in Table 2, which represent the indications specified by way of example: […]

B16F10 cells = test: Cell proliferation assay B16F10 (alamarBlue); format: cell-based; conditions: Mus musculus, B16-F10, melanoma (BRAF wild-type) cells, 96 hours
Protocol: as §1
The B16F10 cells (ATCC, CRL-6475) were seeded at a concentration of 300-500 cells/well in 100 μl of growth medium (DMEM with phenol red, 10% FCS) on 96-well microtitre plates.
as §2, §3

MOLM-13 cells = test: Cell proliferation assay MOLM-13, method 1 (alamarBlue); format: cell-based; conditions: Homo sapiens, acute myeloid leukaemia cells, 4000 cells/well, 96-well, 96 hours
Protocol: as §1
The MOLM-13 cells (DSMZ, ACC 554) were seeded at a concentration of 4000 cells/well in 100 μl of growth medium (RPMI1640, 10% FCS) on 96-well microtitre plates (method 1).
as §2, §3

CHL-1 cells = test: Cell proliferation assay CHL-1 (alamarBlue); format: cell-based; conditions: Homo sapiens, melanoma (BRAF wild-type) cells, 96 hours
Protocol: as §1
The CHL-1 cells (ATCC, CRL-9446) were seeded at a concentration of 1000 cells/well in 100 μl of growth medium (DMEM with glutamine, 10% FCS) on 96-well microtitre plates.
as §2, §3

| SMILES | IC50 [1] | IC50 (B16F10 cells) | IC50 (MOLM-13 cells) | IC50 (MOLP-8 cells) | IC50 (CHL-1 cells) |
| --- | --- | --- | --- | --- | --- |
| CCOC(=O)N=S(C)(=O)c1cccc(Nc2ccc3c(n2)N(C2CCOCC2)[C@H](C)C(=O)N3C)c1 (mixture of isomers) [Example 10, Ethyl [(3-{[(3R)-1,3-dimethyl-2-oxo-4-(tetrahydro-2H-pyran-4-yl)-1,2,3,4-tetrahydropyrido[2,3-b]pyrazin-6-yl]amino}phenyl)(methyl)oxido-λ^6-sulphanylidene]carbamate] | 6120 nM | 304 nM | 368 nM | 281 nM | 196 nM |
| C[C@@H]1C(=O)N(C)c2ccc(Nc3cccc(S(C)(=O)=O)c3)nc2N1C1CCOCC1 [Example 1, (3R)-1,3-Dimethyl-6-{[3-(methylsulphonyl)phenyl]amino}-4-(tetrahydro-2H-pyran-4-yl)-3,4-dihydropyrido[2,3-b]pyrazin-2(1H)-one] | 121 nM | 285 nM | 191 nM | 204 nM | 180 nM |
| Cc1ccc(S(C)(=O)=O)cc1Nc1ccc2c(n1)N(C1CCOCC1)[C@H](C)C(=O)N2C [Example 2, (3R)-1,3-Dimethyl-6-{[2-methyl-5-(methylsulphonyl)phenyl]amino}-4-(tetrahydro-2H-pyran-4-yl)-3,4-dihydropyrido[2,3-b]pyrazin-2(1H)-one] | 173 nM | 319 nM | 238 nM | 236 nM | 189 nM |
| C[C@@H]1C(=O)N(C)c2ccc(Nc3ccc4c(c3)S(=O)(=O)CC4)nc2N1C1CCOCC1 [Example 4, (3R)-6-[(1,1-Dioxido-2,3-dihydro-1-benzothiophen-6-yl)amino]-1,3-dimethyl-4-(tetrahydro-2H-pyran-4-yl)-3,4-dihydropyrido[2,3-b]pyrazin-2(1H)-one] | 64 nM | 375 nM | 289 nM | 221 nM | 196 nM |
| C[C@@H]1C(=O)N(C)c2ccc(Nc3cccc(S(C)(=O)=O)c3)nc2N1C1CCCCCC1 [Example 5, (3R)-4-Cycloheptyl-1,3-dimethyl-6-{[3-(methylsulphonyl)phenyl]amino}-3,4-dihydropyrido[2,3-b]pyrazin-2(1H)-one] | 96 nM | 611 nM | 651 nM | 560 nM | 371 nM |
| C[C@@H]1C(=O)N(C)c2ccc(Nc3cccc(S(C)(=O)=O)c3)nc2N1C1CCN(C)CC1 [Example 11, (3R)-1,3-Dimethyl-4-(1-methylpiperidin-4-yl)-6-{[3-(methylsulphonyl)phenyl]amino}-3,4-dihydropyrido[2,3-b]pyrazin-2(1H)-one] | 75 nM | 445 nM | 188 nM | 167 nM | 109 nM |
| COc1ccc(S(=O)(=O)C2CC2)cc1Nc1ccc2c(n1)N(C1CCN(C)CC1)[C@H](C)C(=O)N2C [Example 12, (3R)-6-{[5-(Cyclopropylsulphonyl)-2-methoxyphenyl]amino}-1,3-dimethyl-4-(1-methylpiperidin-4-yl)-3,4-dihydropyrido[2,3-b]pyrazin-2(1H)-one] | 67 nM | 81 nM | 20 nM | 22 nM | 13 nM |
| COc1ccc(S(=O)(=O)C(C)C)cc1Nc1ccc2c(n1)N(C1CCN(C)CC1)[C@H](C)C(=O)N2C [Example 13, (3R)-6-{[5-(Isopropylsulphonyl)-2-methoxyphenyl]amino}-1,3-dimethyl-4-(1-methylpiperidin-4-yl)-3,4-dihydropyrido[2,3-b]pyrazin-2(1H)-one] | 62 nM | 59 nM | 15 nM | 15 nM | 11 nM |

Stronger by IC50 [1], values ahead:

| IC50 [1] | IC50 (B16F10 cells) | IC50 (MOLM-13 cells) | SMILES | IC50 (MOLP-8 cells) | IC50 (CHL-1 cells) |
| --- | --- | --- | --- | --- | --- |
| 58 nM | 199 nM | 175 nM | COc1ccc(S(C)(=O)=O)cc1Nc1ccc2c(n1)N(C1CCOCC1)[C@H](C)C(=O)N2C [Example 3, (3R)-6-{[2-Methoxy-5-(methylsulphonyl)phenyl]amino}-1,3-dimethyl-4-(tetrahydro-2H-pyran-4-yl)-3,4-dihydropyrido[2,3-b]pyrazin-2(1H)-one] | 103 nM | 127 nM |
| 40 nM | 87 nM | 89 nM | C[C@@H]1C(=O)N(C)c2ccc(Nc3cccc(S(=O)(=O)C4CC4)c3)nc2N1C1CCOCC1 [Example 6, (3R)-6-{[3-(Cyclopropylsulphonyl)phenyl]amino}-1,3-dimethyl-4-(tetrahydro-2H-pyran-4-yl)-3,4-dihydropyrido[2,3-b]pyrazin-2(1H)-one] | 67 nM | 46 nM |
| 44 nM | 104 nM | 111 nM | CC(C)S(=O)(=O)c1cccc(Nc2ccc3c(n2)N(C2CCOCC2)[C@H](C)C(=O)N3C)c1 [Example 7, (3R)-6-{[3-(Isopropylsulphonyl)phenyl]amino}-1,3-dimethyl-4-(tetrahydro-2H-pyran-4-yl)-3,4-dihydropyrido[2,3-b]pyrazin-2(1H)-one] | 75 nM | 51 nM |
| 49 nM | 37 nM | 24 nM | COc1ccc(S(=O)(=O)C2CC2)cc1Nc1ccc2c(n1)N(C1CCOCC1)[C@H](C)C(=O)N2C [Example 8, (3R)-6-{[5-(Cyclopropylsulphonyl)-2-methoxyphenyl]amino}-1,3-dimethyl-4-(tetrahydro-2H-pyran-4-yl)-3,4-dihydropyrido[2,3-b]pyrazin-2(1H)-one] | 23 nM | 18 nM |
| 53 nM | 34 nM | 42 nM | COc1ccc(S(=O)(=O)C(C)C)cc1Nc1ccc2c(n1)N(C1CCOCC1)[C@H](C)C(=O)N2C [Example 9, (3R)-6-{[5-(Isopropylsulphonyl)-2-methoxyphenyl]amino}-1,3-dimethyl-4-(tetrahydro-2H-pyran-4-yl)-3,4-dihydropyrido[2,3-b]pyrazin-2(1H)-one] | 38 nM | 19 nM |
